# Experimental data reported in patent US20160257651A1, “NOVEL COMPOUND WITH ANTIBACTERIAL ACTIVITY” (priority 2013, published 2016).
# Test system: S. pneumoniae KBSP11
# Test: MIC against pneumococcus, CAMHB with 5 mass % LHB
# Type: cell-based, Streptococcus pneumoniae
# Conditions: Streptococcus pneumoniae; S. pneumoniae KBSP11, PRSP, quinolone-susceptible; read-out: MIC
# Method: (§1) The S. pneumoniae strains used for this test belong to any one of the categories of penicillin-susceptible pneumococcus (penicillin-susceptible Streptococcus pneumoniae, PSSP), penicillin-intermediate pneumococcus (penicillin-intermediate Streptococcus pneumoniae, PISP), and penicillin-resistant pneumococcus (penicillin-resistant Streptococcus pneumoniae, PRSP).
# (§2) The lysed horse blood was prepared by adding sterilized water to horse sterile defibered blood (produced by Nippon Bio-Supp. Center) at a ratio of 1:1, subjecting the mixture to freezing and thawing 5 times, then centrifuging the mixture twice at 10,000 rpm for 20 minutes, and filtering the supernatant through a filter.
# (§3) The S. pneumoniae strains mentioned in Table 11 were each cultured overnight at 37° C. on a blood agar medium as stationary culture. The blood agar medium was prepared by adding 5 mass % ovine sterile defibered blood (produced by Nippon Bio-Supp. Center) to a heart infusion agar medium (produced by EIKEN CHEMICAL). Each S. pneumoniae strain cultured overnight at 37° C. as stationary culture was further subcultured overnight at 37° C. on fresh blood agar medium as stationary culture. After completion of the culture, cells of each pneumococcus strain were collected with a swab, and suspended in physiological saline, and the suspension was adjusted with physiological saline to show absorbance of 0.08 to 0.13 at 625 nm as measured with an absorbance meter (produced by Amersham), and further diluted 200 times with CAMHB containing 5 mass % LHB.
# (§4) In Table 11, the amino acid substitution mutations in QRDR of the strains are underlined.
row,Compound,MIC [µg/mL]
1,"C[C@@H]1CN(c2c(F)c(N)c3c(=O)c(C(=O)O)cn(C4CC4)c3c2F)C[C@H](C)N1 [SPX, sparfloxacin]",0.25
2,"CC1COc2c(N3CCN(C)CC3)c(F)cc3c(=O)c(C(=O)O)cn1c23 (centres unmarked) [OFX, ofloxacin]",0.5

# Test system: S. pneumoniae BCLSP37
# Test: MIC against pneumococcus, CAMHB with 5 mass % LHB
# Type: cell-based, Streptococcus pneumoniae
# Conditions: Streptococcus pneumoniae, BCLSP37, S. pneumoniae BCLSP37, PSSP, quinolone-resistant; ParC 79Phe, GyrA 85Lys; read-out: MIC
# Method: as §1, §2, §3, §4
row,Compound,MIC [µg/mL]
1,"C[C@@H]1CN(c2c(F)c(N)c3c(=O)c(C(=O)O)cn(C4CC4)c3c2F)C[C@H](C)N1 [SPX, sparfloxacin]",> 32
2,"CC1COc2c(N3CCN(C)CC3)c(F)cc3c(=O)c(C(=O)O)cn1c23 (centres unmarked) [OFX, ofloxacin]",32

# Test system: Staphylococcus aureus KSA36 (MRSA)
# Test: MIC, S. aureus categories (Test Example 3)
# Type: cell-based
# Conditions: not given
# Method: (§5) The antibacterial activities of the compound J-131CP against Staphylococcus aureus strains belonging to the five categories of Staphylococcus aureus, i.e., MSSA, MRSA, community-acquired-infection type MRSA (CA-MRSA), VISA, and VRSA, were investigated.
# (§6) The compound J-131CP and quinolones were prepared in the same manner as that of Test Example 1-1.
# (§7) Cell suspensions were prepared in the same manner as that of Test Example 1-1 described in the section of measurement of MIC in Test Example 1-1, except that the strains mentioned in Table 6 were used as Staphylococcus aureus, and MICs of the compound J-131CP and quinolones as the control were determined for the strains in the same manner as that of Test Example 1-1. In Table 6, the amino acid substitution mutations in QRDR of the strains are underlined.
row,Compound,MIC [µg/mL]
1,"C[C@@H]1CN(c2c(F)c(N)c3c(=O)c(C(=O)O)cn(C4CC4)c3c2F)C[C@H](C)N1 [SPX, sparfloxacin]",128
2,"CC1COc2c(N3CCN(C)CC3)c(F)cc3c(=O)c(C(=O)O)cn1c23 (centres unmarked) [OFX, ofloxacin]",> 128

# Test system: Staphylococcus aureus MW2 (CA-MRSA)
# Test: MIC, S. aureus categories (Test Example 3)
# Type: cell-based
# Conditions: Staphylococcus aureus; strain MW2, CA-MRSA; read-out: MIC
# Method: as §5, §6, §7
row,Compound,MIC [µg/mL]
1,"C[C@@H]1CN(c2c(F)c(N)c3c(=O)c(C(=O)O)cn(C4CC4)c3c2F)C[C@H](C)N1 [SPX, sparfloxacin]",≤ 0.06
2,"CC1COc2c(N3CCN(C)CC3)c(F)cc3c(=O)c(C(=O)O)cn1c23 (centres unmarked) [OFX, ofloxacin]",0.5

# Test system: Staphylococcus aureus ATCC29213 (MSSA)
# Test: MIC, S. aureus categories (Test Example 3)
# Type: cell-based
# Conditions: strain ATCC29213, MSSA, read-out: MIC
# Method: as §5, §6, §7
row,Compound,MIC [µg/mL]
1,"C[C@@H]1CN(c2c(F)c(N)c3c(=O)c(C(=O)O)cn(C4CC4)c3c2F)C[C@H](C)N1 [SPX, sparfloxacin]",≤ 0.06
2,"CC1COc2c(N3CCN(C)CC3)c(F)cc3c(=O)c(C(=O)O)cn1c23 (centres unmarked) [OFX, ofloxacin]",0.25

# Test system: Staphylococcus aureus BR2 (VISA)
# Test: MIC, S. aureus categories (Test Example 3)
# Type: cell-based
# Conditions: not given
# Method: as §5, §6, §7
row,Compound,MIC [µg/mL]
1,"C[C@@H]1CN(c2c(F)c(N)c3c(=O)c(C(=O)O)cn(C4CC4)c3c2F)C[C@H](C)N1 [SPX, sparfloxacin]",32
2,"CC1COc2c(N3CCN(C)CC3)c(F)cc3c(=O)c(C(=O)O)cn1c23 (centres unmarked) [OFX, ofloxacin]",64

# Test system: Staphylococcus aureus MI (VISA)
# Test: MIC, S. aureus categories (Test Example 3)
# Type: cell-based
# Conditions: not given
# Method: as §5, §6, §7
row,Compound,MIC [µg/mL]
1,"C[C@@H]1CN(c2c(F)c(N)c3c(=O)c(C(=O)O)cn(C4CC4)c3c2F)C[C@H](C)N1 [SPX, sparfloxacin]",32
2,"CC1COc2c(N3CCN(C)CC3)c(F)cc3c(=O)c(C(=O)O)cn1c23 (centres unmarked) [OFX, ofloxacin]",128

# Test system: Staphylococcus aureus VRS1 (VRSA)
# Test: MIC, S. aureus categories (Test Example 3)
# Type: cell-based
# Conditions: not given
# Method: as §5, §6, §7
row,Compound,MIC [µg/mL]
1,"C[C@@H]1CN(c2c(F)c(N)c3c(=O)c(C(=O)O)cn(C4CC4)c3c2F)C[C@H](C)N1 [SPX, sparfloxacin]",8
2,"CC1COc2c(N3CCN(C)CC3)c(F)cc3c(=O)c(C(=O)O)cn1c23 (centres unmarked) [OFX, ofloxacin]",32

# Test system: Staphylococcus aureus VRS3a (VRSA)
# Test: MIC, S. aureus categories (Test Example 3)
# Type: cell-based
# Conditions: not given
# Method: as §5, §6, §7
row,Compound,MIC [µg/mL]
1,"C[C@@H]1CN(c2c(F)c(N)c3c(=O)c(C(=O)O)cn(C4CC4)c3c2F)C[C@H](C)N1 [SPX, sparfloxacin]",16
2,"CC1COc2c(N3CCN(C)CC3)c(F)cc3c(=O)c(C(=O)O)cn1c23 (centres unmarked) [OFX, ofloxacin]",32

# Test system: Staphylococcus aureus NCTC8325 (MSSA)
# Test: MIC, S. aureus categories (Test Example 3)
# Type: cell-based
# Conditions: Staphylococcus aureus; strain NCTC8325, MSSA
# Method: as §5, §6, §7
row,Compound,MIC [µg/mL]
1,"C[C@@H]1CN(c2c(F)c(N)c3c(=O)c(C(=O)O)cn(C4CC4)c3c2F)C[C@H](C)N1 [SPX, sparfloxacin]",0.125

# Same assay, conditions: Staphylococcus aureus; strain NCTC8325, MSSA; read-out: MIC
row,Compound,MIC [µg/mL]
1,"CC1COc2c(N3CCN(C)CC3)c(F)cc3c(=O)c(C(=O)O)cn1c23 (centres unmarked) [OFX, ofloxacin]",0.25

# Test system: Staphylococcus aureus USA300FPR (CA-MRSA)
# Test: MIC, S. aureus categories (Test Example 3)
# Type: cell-based
# Conditions: not given
# Method: as §5, §6, §7
row,Compound,MIC [µg/mL]
1,"C[C@@H]1CN(c2c(F)c(N)c3c(=O)c(C(=O)O)cn(C4CC4)c3c2F)C[C@H](C)N1 [SPX, sparfloxacin]",8
2,"CC1COc2c(N3CCN(C)CC3)c(F)cc3c(=O)c(C(=O)O)cn1c23 (centres unmarked) [OFX, ofloxacin]",16

# Test system: S. aureus MR5867
# Test: MIC against stepwise QRDR mutants
# Type: cell-based
# Conditions: Staphylococcus aureus
# Description: (§8) In order to further verify that the action site of the compound J-131CP is gyrA, there were examined antibacterial activities against the MRSA, S. aureus MR5867, and stepwise-mutated strains (one-step mutant strain to three-step mutant strain) of S. aureus MR5867 in which mutation was introduced into QRDR, as well as the MSSA, S. aureus MS5952, and stepwise-mutated strains (one-step mutant strain to three-step mutant strain) of S. aureus MS5952 in which mutation was introduced into QRDR (those strains mentioned above are described in Antimicrob. Agents Chemother., 42(8), pp. 1917-1922, 1998) by the following methods. The strains used for this test example are available from the inventors of the present invention.
# as §6
# (§9) Then, the cell suspension was diluted 500 times with CAMHB mentioned above.
# (§10) CAMHB containing each of the compound J-131CP and quinolones at each concentration was added to each well of a 96-well plate in a volume of 50 μL/well, the aforementioned cell suspension diluted 500 times was added to the well in a volume of 50 μL/well, and stationary culture was carried out overnight at 37° C. in the same manner as that of Test Example 1-1.
row,Compound,MIC [µg/mL]
1,"C[C@@H]1CN(c2c(F)c(N)c3c(=O)c(C(=O)O)cn(C4CC4)c3c2F)C[C@H](C)N1 [SPX, sparfloxacin]",< 0.06
2,"CC1COc2c(N3CCN(C)CC3)c(F)cc3c(=O)c(C(=O)O)cn1c23 (centres unmarked) [OFX, ofloxacin]",0.25

# Test system: S. aureus MS5952 two-step mutant
# Test: MIC against stepwise QRDR mutants
# Type: cell-based
# Conditions: Staphylococcus aureus
# Description: as §8, §6, §9, §10
row,Compound,MIC [µg/mL]
1,"C[C@@H]1CN(c2c(F)c(N)c3c(=O)c(C(=O)O)cn(C4CC4)c3c2F)C[C@H](C)N1 [SPX, sparfloxacin]",16
2,"CC1COc2c(N3CCN(C)CC3)c(F)cc3c(=O)c(C(=O)O)cn1c23 (centres unmarked) [OFX, ofloxacin]",8

# Test system: S. aureus MS5952
# Test: MIC against stepwise QRDR mutants
# Type: cell-based
# Conditions: Staphylococcus aureus
# Description: as §8, §6, §9, §10
row,Compound,MIC [µg/mL]
1,"C[C@@H]1CN(c2c(F)c(N)c3c(=O)c(C(=O)O)cn(C4CC4)c3c2F)C[C@H](C)N1 [SPX, sparfloxacin]",< 0.06
2,"CC1COc2c(N3CCN(C)CC3)c(F)cc3c(=O)c(C(=O)O)cn1c23 (centres unmarked) [OFX, ofloxacin]",0.25

# Test system: S. aureus MR5867 three-step mutant
# Test: MIC against stepwise QRDR mutants
# Type: cell-based
# Conditions: Staphylococcus aureus
# Description: as §8, §6, §9, §10
row,Compound,MIC [µg/mL]
1,"C[C@@H]1CN(c2c(F)c(N)c3c(=O)c(C(=O)O)cn(C4CC4)c3c2F)C[C@H](C)N1 [SPX, sparfloxacin]",16
2,"CC1COc2c(N3CCN(C)CC3)c(F)cc3c(=O)c(C(=O)O)cn1c23 (centres unmarked) [OFX, ofloxacin]",64

# Test system: S. aureus MR5867 two-step mutant
# Test: MIC against stepwise QRDR mutants
# Type: cell-based
# Conditions: Staphylococcus aureus
# Description: as §8, §6, §9, §10
row,Compound,MIC [µg/mL]
1,"C[C@@H]1CN(c2c(F)c(N)c3c(=O)c(C(=O)O)cn(C4CC4)c3c2F)C[C@H](C)N1 [SPX, sparfloxacin]",8
2,"CC1COc2c(N3CCN(C)CC3)c(F)cc3c(=O)c(C(=O)O)cn1c23 (centres unmarked) [OFX, ofloxacin]",16

# Test system: S. aureus MS5952 three-step mutant
# Test: MIC against stepwise QRDR mutants
# Type: cell-based
# Conditions: Staphylococcus aureus
# Description: as §8, §6, §9, §10
row,Compound,MIC [µg/mL]
1,"C[C@@H]1CN(c2c(F)c(N)c3c(=O)c(C(=O)O)cn(C4CC4)c3c2F)C[C@H](C)N1 [SPX, sparfloxacin]",128
2,"CC1COc2c(N3CCN(C)CC3)c(F)cc3c(=O)c(C(=O)O)cn1c23 (centres unmarked) [OFX, ofloxacin]",64

# Test system: E. faecium RPR2
# Test: MIC against Enterococcus bacteria
# Type: cell-based, Enterococcus faecium
# Conditions: Enterococcus faecium, RPR2
# Method: (§11) Antibacterial activities of the compound J-131CP against Enterococcus bacteria (Enterococcus faecium and Enterococcus faecalis) were examined by the following methods.
# as §6
# (§12) Cell suspensions were prepared in the same manner as that of Test Example 1-1 described in the section of measurement of MIC in Test Example 1-1, except that the Enterococcus bacterium strains mentioned in Table 8 were used instead of Staphylococcus aureus, and MICs of the compound J-131CP and quinolones as control were determined for the strains in the same manner as that of Test Example 1-1 described in the section of measurement of MIC in Test Example 1-1. In Table 8, the amino acid substitution mutations in QRDR of the strains are underlined.
row,Compound,MIC [µg/mL]
1,"C[C@@H]1CN(c2c(F)c(N)c3c(=O)c(C(=O)O)cn(C4CC4)c3c2F)C[C@H](C)N1 [SPX, sparfloxacin]",> 128
2,"CC1COc2c(N3CCN(C)CC3)c(F)cc3c(=O)c(C(=O)O)cn1c23 (centres unmarked) [OFX, ofloxacin]",> 128

# Test system: E. faecium NCTC12202
# Test: MIC against Enterococcus bacteria
# Type: cell-based, Enterococcus faecium
# Conditions: Enterococcus faecium, NCTC 12202 / VRE; E. faecium NCTC12202, VRE, quinolone-susceptible; read-out: MIC
# Method: as §11, §6, §12
row,Compound,MIC [µg/mL]
1,"C[C@@H]1CN(c2c(F)c(N)c3c(=O)c(C(=O)O)cn(C4CC4)c3c2F)C[C@H](C)N1 [SPX, sparfloxacin]",0.25
2,"CC1COc2c(N3CCN(C)CC3)c(F)cc3c(=O)c(C(=O)O)cn1c23 (centres unmarked) [OFX, ofloxacin]",1
